Test results as given in patent US9624218B2 (Eli Lilly and Company, priority 2014, dated 2017).
Where “and” joins values, the source holds several entries; their conditions need not be identical. Identical values can stand only once. Like-named read-outs stand apart in the source and are kept apart here.

How the values were obtained:
[1] = system: Wnt-inducible genes (TCF/LEF luciferase reporter in DLD-1 TOPFlash cells); conditions: read-out: Wnt-inducible gene expression inhibition IC50, 24 hours, Mean ± SEM
[2] = system: EGFP-Axin2 fusion protein; conditions: read-out: Axin2 Stabilization EC50; HEK293 EGFP-Axin2 cells, 24 hours; Mean ± SEM
[3] = system: Wnt-inducible genes (TCF/LEF luciferase reporter in DLD-1 TOPFlash cells); assay: cells; conditions: Homo sapiens, DLD-1, 24 h, read-out: Wnt-inducible gene expression inhibition IC50, DLD-1 TOPFlash cells, 24 hours; Mean ± SEM
[4] = system: Panc 04.03 cells; conditions: 11 days
[5] = system: A549 cells; assay: cells; conditions: Homo sapiens, read-out: % Inhibition of Colony Formation
[6] = system: HPAF-II cells; assay: cells; conditions: Homo sapiens, read-out: % Inhibition of Colony Formation
[7] = system: Capan-2 cells; assay: cells; conditions: Homo sapiens, read-out: % Inhibition of Colony Formation
[8] = system: C57BL/6J-Apc^Min/J strain mice; assay: In vivo antitumor activity, intestinal polyps; conditions: 25 mg/kg BID, 60 consecutive days, small intestine
Excerpt: C57BL/6J-Apc^Min/J strain mice carry a truncating mutation at codon 850 of the Apc gene and develop intestinal polyps and colorectal neoplasms at the age of 3-6 months. Truncation in the APC gene leads to activation of the Wnt signaling pathway and elevated levels of β catenin are frequently detected in pre-neoplastic/neoplastic lesions in these mice.
At the end of the treatment period, the animals are sacrificed and the number of polyps in the small intestine is counted under a dissection microscope.

[9] = target: hTNKS1 (Homo sapiens (Human), UniProt O95271); assay: hTNKS1 enzyme activity ELISA (poly ADP ribose incorporation into TRF1); format: biochemical; conditions: Mean ± SEM
Chain of hTNKS1 (O95271 whole entry, change not shown): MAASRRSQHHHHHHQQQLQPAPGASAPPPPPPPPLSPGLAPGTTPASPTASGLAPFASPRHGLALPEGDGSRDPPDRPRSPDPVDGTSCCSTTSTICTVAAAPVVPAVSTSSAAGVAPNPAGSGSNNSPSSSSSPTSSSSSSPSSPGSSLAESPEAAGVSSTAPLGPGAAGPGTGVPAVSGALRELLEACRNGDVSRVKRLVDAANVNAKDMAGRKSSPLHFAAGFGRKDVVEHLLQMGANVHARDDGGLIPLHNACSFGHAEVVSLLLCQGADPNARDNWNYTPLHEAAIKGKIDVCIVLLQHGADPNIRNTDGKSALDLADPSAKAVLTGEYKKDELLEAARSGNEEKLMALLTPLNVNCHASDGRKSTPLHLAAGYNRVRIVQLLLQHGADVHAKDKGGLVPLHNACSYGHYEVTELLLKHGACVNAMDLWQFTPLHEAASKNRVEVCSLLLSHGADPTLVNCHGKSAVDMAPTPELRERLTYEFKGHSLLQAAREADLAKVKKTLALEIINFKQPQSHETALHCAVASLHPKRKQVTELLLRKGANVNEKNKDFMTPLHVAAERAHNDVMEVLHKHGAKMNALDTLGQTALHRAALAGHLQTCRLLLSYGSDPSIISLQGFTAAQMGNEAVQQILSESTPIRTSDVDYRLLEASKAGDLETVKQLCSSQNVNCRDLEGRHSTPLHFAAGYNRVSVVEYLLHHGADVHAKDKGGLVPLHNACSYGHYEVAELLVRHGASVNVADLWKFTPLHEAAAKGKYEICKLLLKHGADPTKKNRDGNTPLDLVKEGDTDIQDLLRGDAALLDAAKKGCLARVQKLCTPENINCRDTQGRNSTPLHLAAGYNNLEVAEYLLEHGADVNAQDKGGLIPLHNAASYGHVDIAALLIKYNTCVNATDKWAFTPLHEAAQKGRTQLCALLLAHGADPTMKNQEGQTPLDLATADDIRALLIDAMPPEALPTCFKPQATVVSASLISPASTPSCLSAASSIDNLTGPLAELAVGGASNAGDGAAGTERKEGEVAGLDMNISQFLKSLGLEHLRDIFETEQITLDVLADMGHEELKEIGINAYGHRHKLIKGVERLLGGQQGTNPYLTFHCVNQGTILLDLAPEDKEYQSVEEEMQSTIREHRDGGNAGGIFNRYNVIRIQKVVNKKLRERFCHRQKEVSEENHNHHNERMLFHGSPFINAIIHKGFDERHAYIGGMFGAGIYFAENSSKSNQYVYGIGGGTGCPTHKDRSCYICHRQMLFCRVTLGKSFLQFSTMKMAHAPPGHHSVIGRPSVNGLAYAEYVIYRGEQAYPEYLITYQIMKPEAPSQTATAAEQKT

Structure (SMILES): CCC(c1ncccn1)N1CCN(c2nc3c(c(=O)[nH]2)CCCN3C)CC1 (single isomer, unassigned; isomer 2) [Example 12, 8-Methyl-2-[4-(1-pyrimidin-2-ylpropyl)piperazin-1-yl]-3,5,6,7-tetrahydropyrido[2,3-d]pyrimidin-4-one, Isomer 2]
- IC50 [1]: 19.5 nM
- EC50 [2]: 122 nM

Structure (SMILES): Cc1ccnc(CN2CCN(c3nc4c(c(=O)[nH]3)CCCN4C)CC2)n1 [Example 14, 8-Methyl-2-[4-[(4-methylpyrimidin-2-yl)methyl]piperazin-1-yl]-3,5,6,7-tetrahydropyrido[2,3-d]pyrimidin-4-one]
- EC50 [2]: 52.7 nM
- IC50 [3]: 9.35 nM

Structure (SMILES): CN1CCCc2c1nc(N1CCN(Cc3ncc(C(F)(F)F)cn3)CC1)[nH]c2=O [Example 15, 8-Methyl-2-[4-[[5-(trifluoromethyl)pyrimidin-2-yl]methyl)piperazin-1-yl]-3,5,6,7-tetrahydropyrido[2,3-d]pyrimidin-4-one]
- EC50 [2]: 115 nM
- IC50 [3]: 15.4 nM

Structure (SMILES): CN1CCCc2c1nc(N1CCN(Cc3ncccc3Br)CC1)[nH]c2=O [Example 3, 2-[4-[(3-Bromo-2-pyridyl)methyl]piperazin-1-yl]-8-methyl-3,5,6,7-tetrahydropyrido[2,3-d]pyrimidin-4-one]
- EC50 [2]: 18.4 nM
- IC50 [3]: 8.66 nM

Structure (SMILES): CN1CCCc2c1nc(N1CCN(Cc3ncccc3O)CC1)[nH]c2=O [Example 4, 2-[4-[(3-Hydroxy-2-pyridyl)methyl]piperazin-1-yl]-8-methyl-3,5,6,7-tetrahydropyrido[2,3-d]pyrimidin-4-one]
- EC50 [2]: 26.9 nM
- IC50 [3]: 6.71 nM

Structure (SMILES): COc1ccnc(CN2CCN(c3nc4c(c(=O)[nH]3)CCCN4C)CC2)n1 [Example 13, 2-[4-[(4-methoxypyrimidin-2-yl)methyl]piperazin-1-yl]-8-methyl-3,5,6,7-tetrahydropyrido[2,3-d]pyrimidin-4-one]
- EC50 [2]: 101 nM
- IC50 [3]: 23 nM

Structure (SMILES): CN1CCCc2c1nc(N1CCN(Cc3ccccc3Cl)CC1)[nH]c2=O [Example 38, 2-[4-[(2-Chlorophenyl)methyl]piperazin-1-yl]-8-methyl-3,5,6,7-tetrahydropyrido[2,3-d]pyrimidin-4-one]
- EC50 [2]: 34.8 nM
- IC50 [3]: 22.2 nM

Structure (SMILES): CC(c1ncccn1)N1CCN(c2nc3c(c(=O)[nH]2)CCCN3C)CC1 (single isomer, unassigned; isomer 1) [Example 8, 8-Methyl-2-[4-(1-pyrimidin-2-ylethyl)piperazin-1-yl]-3,5,6,7-tetrahydropyrido[2,3-d]pyrimidin-4-one, Isomer 1]
- EC50 [2]: 71.5 nM
- IC50 [3]: 18.4 nM

Structure (SMILES): CN1CCCc2c1nc(N1CCN(Cc3nccnc3Cl)CC1)[nH]c2=O [Example 43, 2-[4-[(3-Chloropyrazin-2-yl)methyl]piperazin-l-yl]-8-methyl-3,5,6,7-tetrahydropyrido[2,3-d]pyrimidin-4-one]
- EC50 [2]: 74.5 nM

Structure (SMILES): CN1CCCc2c1nc(N1CCN(Cc3ncccn3)CC1)[nH]c2=O [Example 1, 8-Methyl-2-[4-(pyrimidin-2-ylmethyl)piperazin-1-yl]-3,5,6,7-tetrahydropyrido[2,3-d]pyrimidin-4-one]
- % Inhibition of Colony Formation ([4]; Panc 04.03, 0.03 μM): −34.35%
- % Inhibition of Colony Formation ([4]; Panc 04.03, 0.11 μM): 51.39%
- % Inhibition of Colony Formation ([4]; Panc 04.03, 0.33 μM): 92.79%
- % Inhibition of Colony Formation ([4]; Panc 04.03, 1 μM): 92.51%
- % Inhibition of Colony Formation ([4]; Panc 04.03, 3 μM): 90.03%
- inhibition at 0.03 µM [5]: 25.5%
- inhibition at 0.11 µM [5]: 46.5%
- inhibition at 0.33 µM [5]: 54.2%
- inhibition at 1 µM [5]: 74.3%
- inhibition at 3 µM [5]: 72.1%
- inhibition at 0.03 µM [6]: 2.44%
- inhibition at 0.11 µM [6]: 40.5%
- inhibition at 0.33 µM [6]: 61.6%
- inhibition at 1 µM [6]: 85.2%
- inhibition at 3 µM [6]: 88.2%
- EC50 [2]: 65.9 nM
- IC50 [3]: 13.2 nM
- inhibition at 0.03 µM [7]: -20.8%
- inhibition at 0.11 µM [7]: 18%
- inhibition at 0.33 µM [7]: 55.9%
- inhibition at 1 µM [7]: 63.9%
- inhibition at 3 µM [7]: 70.7%
- Average Number of polyps per Animal [8]: statistically significant lower number of tumors and 4.3 ± 0.70

Structure (SMILES): CN1CCCc2c1nc(N1CCN(Cc3cnccn3)CC1)[nH]c2=O [Example 42, 8-Methyl-2-[4-(pyrazin-2-ylmethyl)piperazin-1-yl]-3,5,6,7-tetrahydropyrido[2,3-d]pyrimidin-4-one]
- EC50 [2]: 141 nM
- IC50 [3]: 22 nM

Structure (SMILES): CC(c1ncc(F)cn1)N1CCN(c2nc3c(c(=O)[nH]2)CCCN3C)CC1 (stereo not shown) [Example 5]
- IC50 [9]: 85.2 nM

Structure (SMILES): CN1CCCc2c1nc(N1CCN(Cc3ncc(F)cc3F)CC1)[nH]c2=O [Example 45, 2-[4-[(3,5-Difluoro-2-pyridyl)methyl]piperazin-1-yl]-8-methyl-3,5,6,7-tetrahydropyrido[2,3-d]pyrimidin-4-one]
- EC50 [2]: 144 nM
- IC50 [3]: 18.8 nM

Structure (SMILES): CN1CCCc2c1nc(N1CCN(Cc3ncccc3F)CC1)[nH]c2=O [Example 20, 2-[4-[(3-Fluoro-2-pyridyl)methyl]piperazin-1-yl]-8-methyl-3,5,6,7-tetrahydropyrido[2,3-d]pyrimidin-4-one]
- EC50 [2]: 77.9 nM
- IC50 [3]: 22.2 nM

Structure (SMILES): CC(c1ncccn1)N1CCN(c2nc3c(c(=O)[nH]2)CCCN3C)CC1 (single isomer, unassigned; isomer 2) [Example 9, 8-Methyl-2-[4-(1-pyrimidin-2-ylethyl)piperazin-1-yl]-3,5,6,7-tetrahydropyrido[2,3-d]pyrimidin-4-one, Isomer 2]
- IC50 [1]: 28.2 nM
- EC50 [2]: 70.9 nM

Structure (SMILES): CC(c1ncccn1)N1CCN(c2nc3c(c(=O)[nH]2)CCCN3C)CC1 (racemic) [Example 7, 8-Methyl-2-[4-(1-pyrimidin-2-ylethyl)piperazin-1-yl]-3,5,6,7-tetrahydropyrido[2,3-d]pyrimidin-4-one]
- EC50 [2]: 121 nM
- IC50 [3]: 14.6 nM

Structure (SMILES): Cc1cnc(CN2CCN(c3nc4c(c(=O)[nH]3)CCCN4C)CC2)nc1 [Example 17, 8-Methyl-2-[4-[(5-methylpyrimidin-2-yl)methyl]piperazin-1-yl]-3,5,6,7-tetrahydropyrido[2,3-d]pyrimidin-4-one]
- EC50 [2]: 198 nM
- IC50 [3]: 37.3 nM

Structure (SMILES): CCC(c1ncccn1)N1CCN(c2nc3c(c(=O)[nH]2)CCCN3C)CC1 (stereo not shown) [Example 10, 8-Methyl-2-[4-(1-pyrimidin-2-ylpropyl)piperazin-1-yl]-3,5,6,7-tetrahydropyrido[2,3-d]pyrimidin-4-one]
- EC50 [2]: 590 nM
- IC50 [3]: 171 nM

Structure (SMILES): CN1CCCc2c1nc(N1CCN(Cc3ncccc3C#N)CC1)[nH]c2=O [Example 40, 2-[[4-(8-Methyl-4-oxo-3,5,6,7-tetrahydropyrido[2,3-d]pyrimidin-2-yl)piperazin-1-yl]methyl]pyridine-3-carbonitrile]
- EC50 [2]: 39.8 nM
- IC50 [3]: 6.95 nM

Structure (SMILES): CN1CCCc2c1nc(N1CCN(Cc3ncccc3Cl)CC1)[nH]c2=O [Example 2, 2-[4-[(3-Chloro-2-pyridyl)methyl]piperazin-1-yl]-8-methyl-3,5,6,7-tetrahydropyrido[2,3-d]pyrimidin-4-one]
- EC50 [2]: 32 nM
- IC50 [3]: 8.17 nM

Structure (SMILES): CN1CCCc2c1nc(N1CCN(Cc3ncc(F)cn3)CC1)[nH]c2=O [Example 39, 2-[4-[(5-Fluoropyrimidin-2-yl)methyl]piperazin-1-yl]-8-methyl-3,5,6,7-tetrahydropyrido [2,3-d]pyrimidin-4-one]
- EC50 [2]: 181 nM
- IC50 [3]: 20.6 nM

Structure (SMILES): CN1CCCc2c1nc(N1CCN(Cc3nccc(Cl)n3)CC1)[nH]c2=O [Example 41, 2-[4-[(4-Chloropyrimidin-2-yl)methyl]piperazin-1-yl]-8-methyl-3,5,6,7-tetrahydropyrido[2,3-d]pyrimidin-4-one]
- EC50 [2]: 61.6 nM

Structure (SMILES): CN1CCCc2c1nc(N1CCN(Cc3ncc(Cl)cn3)CC1)[nH]c2=O [Example 18, 2-[4-[(5-Chloropyrimidin-2-yl)methyl]piperazin-1-yl]-8-methyl-3,5,6,7-tetrahydropyrido[2,3-d]pyrimidin-4-one]
- EC50 [2]: 901 nM
- IC50 [3]: 156 nM

Structure (SMILES): CN1CCCc2c1nc(N1CCN(Cc3ccccn3)CC1)[nH]c2=O [Example 19, 8-Methyl-2-[4-(2-pyridylmethyl)piperazin-1-yl]-3,5,6,7-tetrahydropyrido[2,3-d]pyrimidin-4-one]
- EC50 [2]: 62.6 nM
- IC50 [3]: 12.6 nM

Structure (SMILES): CN1CCCc2c1nc(N1CCN(Cc3nccc(C(F)(F)F)n3)CC1)[nH]c2=O [Example 16, 8-Methyl-2-[4-[[4-(trifluoromethyl)pyrimidin-2-yl]methyl]piperazin-1-yl]-3,5,6,7-tetrahydropyrido[2,3-d]pyrimidin-4-one]
- EC50 [2]: 509 nM
- IC50 [3]: 102 nM

Structure (SMILES): Cc1nccnc1CN1CCN(c2nc3c(c(=O)[nH]2)CCCN3C)CC1 [Example 44, 8-Methyl-2-[4-[(3-methyl-pyrazin-2-yl)methyl]piperazin-1-yl]-3,5,6,7-tetrahydropyrido[2,3-d]pyrimidin-4-one]
- EC50 [2]: 118 nM
- IC50 [3]: 11.2 nM
